From DBAASP
In brackets after ≈: the same amount, converted by molar mass. One block for each molecule: values may come before it.

Columns and labels:
Assay in all cases: ≥ marks a high value that may be exact or a test limit, other limits are often not marked, values filed in µg/mL are converted to µM
[1] = tested on: Bacillus subtilis KCTC 1918
[2] = tested on: Candida albicans TIMM 1768
[3] = tested on: Proteus vulgaris KCTC 2433
[4] = tested on: Saccharomyces cerevisiae KCTC 7296
[5] = tested on: Salmonella typhimurium KCTC 1926
[6] = tested on: Staphylococcus aureus KCTC 1621
[7] = tested on: Trichosporon beigelii KCTC 7707
[8] = tested on: Acinetobacter baumannii NM35
[9] = tested on: Acinetobacter baumannii NM8
[10] = tested on: Candida albicans ATCC 90028
[11] = tested on: Enterococcus faecalis ATCC 29212
[12] = tested on: Escherichia coli ATCC 25726
[13] = tested on: Klebsiella pneumoniae ATCC 700603
[14] = tested on: Pseudomonas aeruginosa ATCC 27853
[15] = tested on: Staphylococcus aureus 127/08
[16] = tested on: Staphylococcus aureus 145/08
[17] = tested on: Staphylococcus epidermidis RP62A/1
[18] = tested on: Staphylococcus epidermidis RP62A
[19] = tested on: Staphylococcus epidermidis T37/8
[20] = tested on: Staphylococcus epidermidis T6/19
[21] = tested on: Stenotrophomonas maltophilia B32/1
[22] = tested on: Stenotrophomonas maltophilia B5/5
[23] = tested on: Stenotrophomonas maltophilia U8908
[24] = tested on: Bacillus subtilis IFO 3513
[25] = tested on: Escherichia coli IFO 12734
Escherichia coli JM109 = tested on: Escherichia coli JM109
Escherichia coli W160-37 = tested on: Escherichia coli W160-37
[26] = tested on: Micrococcus luteus ATCC 9341
[27] = tested on: Saccharomyces cerevisiae PEP 4/3l
[28] = tested on: Staphylococcus aureus ATCC 8530
[29] = tested on: Staphylococcus aureus IFO 12732
[30] = tested on: Aspergillus flavus KCTC 7375
[31] = tested on: Bacillus megaterium KCTC 1096
[32] = tested on: Candida albicans KCTC 7121
[33] = tested on: Escherichia coli KCTC 1682
[34] = tested on: Fusarium oxysporum KCTC 6084
Proteus vulgaris = tested on: Proteus vulgaris
[35] = tested on: Pseudomonas aeruginosa KCTC 1637
[36] = tested on: Trichosporon beigelii KCTC 7251
[37] = tested on: Candida albicans ATCC 37092
[38] = tested on: Escherichia coli ATCC 25922
Escherichia coli HB101 = tested on: Escherichia coli HB101
Escherichia coli ML-35 = tested on: Escherichia coli ML-35
[39] = tested on: Salmonella enterica subsp. enterica serovar Typhimurium ATCC 14028
[40] = tested on: Serratia marcescens ATCC 8100
[41] = tested on: Staphylococcus aureus ATCC 25923
[42] = tested on: Staphylococcus aureus ATCC 29213

SMILES: CC[C@H](C)[C@H](N)C(=O)N[C@@H](CC(C)C)C(=O)N1CCC[C@H]1C(=O)N[C@@H](Cc1ccccc1)C(=O)N[C@@H](CCCCN)C(=O)N[C@@H](Cc1ccccc1)C(=O)N1CCC[C@H]1C(=O)N[C@@H](Cc1ccccc1)C(=O)N[C@@H](Cc1ccccc1)C(=O)N1CCC[C@H]1C(=O)N[C@@H](Cc1ccccc1)C(=O)N[C@@H](CCCN=C(N)N)C(=O)N[C@@H](CCCN=C(N)N)C(N)=O [ILPFKFPFFPFRR]
MIC [24]: 7.3 µM (≈ 12.5 µg/mL) | MIC [25]: ≥ 58.4 µM | MIC (Escherichia coli JM109): 8 µM (≈ 13.7 µg/mL) | MIC (Escherichia coli W160-37): 16 µM (≈ 27.4 µg/mL) | MIC [26]: 0.4 µM (≈ 0.684 µg/mL) | MIC [27]: 13.1 µM (≈ 22.3 µg/mL) | MIC [28]: 1.65 µM (≈ 2.83 µg/mL) | MIC [29]: 3.65 µM (≈ 6.25 µg/mL)

SMILES: CC[C@H](C)[C@H](NC(=O)[C@H](CCCCN)NC(=O)[C@H](CCCCN)NC(=O)[C@H](Cc1ccccc1)NC(=O)[C@H](CC(C)C)NC(=O)[C@H](CCCCN)NC(=O)[C@H](Cc1c[nH]c2ccccc12)NC(=O)[C@@H](N)CCCCN)C(=O)N1CCC[C@H]1C(=O)N[C@@H](CCCCN)C(=O)N[C@@H](Cc1ccccc1)C(=O)N[C@@H](CC(C)C)C(=O)N[C@@H](Cc1cnc[nH]1)C(=O)N[C@@H](CC(C)C)C(=O)N[C@@H](C)C(N)=O [KWKLFKKIPKFLHLA]
MIC [30]: ≥ 100 µM | MIC [31]: 3.12 µM (≈ 5.93 µg/mL) | MIC [1]: 0.78 µM (≈ 1.48 µg/mL) | MIC [32]: ≥ 50 µM | MIC [33]: 8.84 µM (≈ 16.8 µg/mL) | MIC [34]: ≥ 100 µM | MIC (Proteus vulgaris): 3.12 µM (≈ 5.93 µg/mL) | MIC [35]: 6.25 µM (≈ 11.9 µg/mL) | MIC [6]: 6.25 µM (≈ 11.9 µg/mL) | MIC [36]: ≥ 50 µM

SMILES: CC[C@H](C)[C@H](NC(=O)[C@H](CCCN=C(N)N)NC(=O)[C@@H](N)CCCN=C(N)N)C(=O)N[C@@H](CCCN=C(N)N)C(=O)N1CCC[C@H]1C(=O)N[C@@H](CCCN=C(N)N)C(=O)N1CCC[C@H]1C(=O)N1CCC[C@H]1C(=O)N[C@@H](CCCN=C(N)N)C(=O)N[C@@H](CC(C)C)C(=O)N1CCC[C@H]1C(=O)N[C@@H](CCCN=C(N)N)C(=O)N1CCC[C@H]1C(=O)N[C@@H](CCCN=C(N)N)C(=O)N1CCC[C@H]1C(=O)O [RRIRPRPPRLPRPRP]
MIC [37]: 28.8 µM (≈ 55.3 µg/mL) | MIC [38]: 45.3 µM (≈ 86.9 µg/mL) | MIC (Escherichia coli HB101): 16 µM (≈ 30.7 µg/mL) | MIC (Escherichia coli ML-35): ≥ 128 µM | MIC [39]: 128 µM (≈ 246 µg/mL) | MIC [40]: ≥ 128 µM | MIC [41]: > 128 µM | MIC [42]: > 500 µM

Now from value to molecule:

MIC [1]: 6.25 µM (≈ 14.4 µg/mL) | MIC [2]: ≥ 50 µM | MIC [3]: 6.25 µM (≈ 14.4 µg/mL) | MIC [4]: ≥ 50 µM | MIC [5]: 0.78 µM (≈ 1.79 µg/mL) | MIC [6]: 6.25 µM (≈ 14.4 µg/mL) | MIC [7]: ≥ 50 µM
SMILES: CC[C@H](C)[C@H](NC(=O)CNC(=O)[C@H](CC(C)C)NC(=O)[C@H](CCCN=C(N)N)NC(=O)[C@H](CCCCN)NC(=O)[C@H](Cc1ccccc1)NC(=O)[C@@H](NC(=O)[C@H](CCCCN)NC(=O)[C@H](Cc1c[nH]c2ccccc12)NC(=O)[C@H](C)N)C(C)C)C(=O)NCC(=O)N[C@@H](C)C(=O)N[C@H](C(=O)N[C@@H](CC(C)C)C(=O)N[C@@H](Cc1c[nH]c2ccccc12)C(=O)N[C@H](C(=O)N[C@@H](CC(C)C)C(=O)N[C@H](C(=O)N[C@@H](Cc1c[nH]c2ccccc12)C(=O)NCC(=O)O)[C@@H](C)O)C(C)C)C(C)C [AWKVFKRLGIGAVLWVLTWG]

MIC [8]: 10 µM (≈ 28.7 µg/mL) | MIC [9]: 20 µM (≈ 57.5 µg/mL) | MIC [10]: ≥ 80 µM | MIC [11]: 20 µM (≈ 57.5 µg/mL) | MIC [12]: ≥ 80 µM | MIC [13]: > 80 µM | MIC [14]: > 80 µM | MIC [15]: 5 µM (≈ 14.4 µg/mL) | MIC [16]: 10 µM (≈ 28.7 µg/mL) | MIC [17]: 2.5 µM (≈ 7.18 µg/mL) | MIC [18]: 5 µM (≈ 14.4 µg/mL) | MIC [19]: 10 µM (≈ 28.7 µg/mL) | MIC [20]: 5 µM (≈ 14.4 µg/mL) | MIC [21]: 10 µM (≈ 28.7 µg/mL) | MIC [22]: ≥ 40 µM | MIC [23]: 20 µM (≈ 57.5 µg/mL)
SMILES: CC[C@H](C)[C@H](NC(=O)CN)C(=O)N[C@@H](Cc1ccccc1)C(=O)N1CCC[C@H]1C(=O)N[C@H](C(=O)N[C@@H](Cc1ccccc1)C(=O)N[C@@H](C)C(=O)N[C@@H](CCCCN)C(=O)N[C@@H](CC(C)C)C(=O)N[C@@H](CC(C)C)C(=O)NCC(=O)N[C@@H](CCCCN)C(=O)N[C@H](C(=O)N[C@H](C(=O)N[C@@H](CCCCN)C(=O)N[C@H](C(=O)N[C@@H](C)C(=O)N[C@@H](CO)C(=O)N[C@@H](CO)C(=O)N[C@@H](CC(C)C)C(=O)N[C@H](C(=O)N[C@@H](CO)C(=O)N[C@@H](CCCCN)C(=O)NCC(=O)N[C@@H](CCCN=C(N)N)C(=O)N[C@H](C(=O)N[C@@H](CCC(=O)O)C(=O)O)[C@@H](C)O)[C@@H](C)CC)C(C)C)[C@@H](C)CC)C(C)C)[C@@H](C)CC [GIFPIFAKLLGKVIKVASSLISKGRTE]
